Measured values: patent US10980776B2, “Synergistic pharmaceutical combination for the treatment of squamous cell carcinoma of head and neck” (Piramal Enterprises Limited, priority 2011, dated 2021)
Like-named read-outs stand apart in the source and are kept apart here.

Columns and labels:
[1] = system: FADU cells; assay: CCK-8 cytotoxicity assay, determination of inhibitory concentrations in FADU cells; format: cell-based, human; details: 72 hr
Method: (§1) Logarithmically growing cells were plated at a density of 3×10^3 cells/well and allowed to recover overnight. […] After 72 hours, cell toxicity was determined by CCK-8 (Cell Counting Kit-8) reagent (Dojindo Molecular Technologies, Japan); WST-8 (2-(2-methoxy-4-nitrophenyl)-3-(4-nitrophenyl)-5-(2, 4-disulfophenyl)]-2H-tetrazolium, monosodium salt) assay. In accordance with the manufacturer's instructions, 5 μl/well CCK-8 reagent was added and plates were incubated for 2 hours. The toxicity was determined by measuring the absorbance on Tecan Sapphire multi-fluorescence micro-plate reader (Tecan, Germany, GmbH) at a wavelength of 450 nm corrected to 650 nm and normalized to controls.
(§2) CCK-8 allows convenient assays using Dojindo's tetrazolium salt, WST [8[(2-(2-methoxy-4-nitrophenyl)-3-(4-nitrophenyl)-5-(2,4-disulfophenyl)-2H-tetrazolium, monosodium salt], which produces a water-soluble formazan dye upon bioreduction in the presence of an electron carrier, 1-Methoxy PMS. CCK-8 solution is added directly to the cells; no pre-mixing of components is required. CCK-8 is a sensitive nonradioactive colorimetric assay for determining the number of viable cells in cell proliferation and cytotoxicity assays. WST-8 is bio-reduced by cellular dehydrogenases to an orange formazan product that is soluble in tissue culture medium. The amount of formazan produced is directly proportional to the number of living cells. The detection sensitivity of cell proliferation assays using WST-8 is higher than assays using the other tetrazolium salts such as MIT, XTT, MTS or WST-1. Optical Density was determined at measurement wavelength of 450 nm and reference wave length of 630 nm.
(§3) The cells were seeded at a density of 3000 cells/well, in a 200 μL in tissue culture grade 96 well plate and were allowed to recover for 24 hrs in a humidified 5%±0.2 CO2 incubator at 37° C.±0.5° C. […] The final DMSO concentration was 0.5% in wells. Plates were incubated for 48 hrs in humidified 5%±0.2 CO2 incubator at 37±0.5° C. After 48 hrs the plates were removed from CO2 incubator and 5 μL of Cell counting Kit (CCK-8) per well was added. The same plate was kept at 37° C. for 3 hrs, and allowed to come to room temperature. The absorbance at a wavelength of 450 nm was read on Tecan safire reader. The percent cytotoxicity was calculated using the following formula.

[2] = system: Detroit-562 cells; assay: CCK-8 cytotoxicity assay, determination of inhibitory concentrations in Detroit-562 cells; format: cell-based; details: 72 hr
Method: as §1, §2, §3

[3] = system: Detroit-562 cells; assay: Combination studies (single and sequential combination dosing), % cytotoxicity in Detroit-562 cells; details: for % Cytotoxicity: Detroit-562; for cytotoxicity at 1 µM / cytotoxicity at 1.8 µM: Homo sapiens, Detroit 562, Detroit-562
Method: as §1, §2
(§4) Sorafenib in the following dose of final concentration 1.8 μM and compound A in the following doses of final concentration 0.5 μM, 1.3 μM and 12.1 μM were analyzed in single dose and in all possible combinations of the dose range for the two anticancer agents mentioned above. The sequence of treatment is as follows; Detroit-562 cells were treated with sorafenib for 0 to 24 hrs. At the end of 24 hrs the cells were washed two times with plain MEM medium. Fresh MEM with 10% serum (200 μL/well) was added, followed by treatment with compound A from 24 hrs to 96 hrs.
as §4, with “compound B” for “compound A”, “concentration 2.7” for “concentration 0.5”, “μM, 14.1” for “μM, 1.3”, “and 25.2” for “and 12.1”, “follows; the” for “follows;”
as §4, with “Lapatinib” for “Sorafenib”, “1” for “1.8”, “follows; the” for “follows;”, “lapatinib” for “sorafenib”
(§5) Lapatinib in the following dose of final concentration 1.0 μM and compound B in the following doses of final concentration 2.7 μM, 14.1 μM and 25.2 μM were analyzed in single dose and in all possible combinations of the dose range for the two drugs mentioned above. The sequence of treatment is as follows; the Detroit-562 cells were treated with lapatinib for 0 to 24 hrs. At the end of 24 hrs the cells were washed two times with plain MEM medium. Fresh MEM with 10% serum (200 μL/well) was added, followed by treatment with compound A from 24 hrs to 96 hrs.

[4] = system: FADU cells; details: FADU
[5] = system: FaDu (hypopharyngeal squamous cell carcinoma) xenografts; assay: In vivo efficacy in human head and neck cancer FaDu xenografts; details: FaDu xenografts in SCID mice; end of treatment, after 18 days; Compound A 35 mpk i.p. once daily 5 days a week; cisplatin 1 mpk i.p. once a week; cetuximab 2.5 mpk twice a week; 3 weeks
Method: In-vivo studies were carried out according to the method described in Clinical cancer search, 2003, 9, 6052-6061; the disclosure of which is incorporated herein by reference for the teaching of the assay.
The in-vivo studies were carried out using Xenograft models in Severe combined immune deficiency (SCID) mice strain—CbySmn.CB17-Prkdcscid/J, by the method described below. The statistically significant number of mice per group (n=6) was chosen in order to be able to statistically evaluate the study data.
FaDu cells were grown in MEM (minimum essential media) medium containing non-essential amino acids and 10% fetal calf serum in 5% CO2 incubator at 37° C. Cells were pelleted by centrifugation at 1000 rpm for 10 minutes. Cells were resuspended in pre-chilled mixture of saline to get a count of 6×10^6 cells per mL; 0.2 ml of this cell suspension was kept on ice and injected by subcutaneous (s.c.) route in SCID mice. Mice were observed every alternate day for palpable tumor mass. Once the tumor size reached a size of 3-5 mm in diameter, animals were randomized into respective groups of treatment and untreated controls. The treatment groups comprised of 5 groups viz. […] The control group received no treatment.
Measurement of tumor was done every 2-3 days apart. Growth inhibition percentage (GI %) was calculated at the end of experiment.

[6] = system: FADU cells; assay: cells; details: Homo sapiens
[7] = system: SCC-25 cells; assay: CCK-8 cytotoxicity assay, determination of inhibitory concentrations in SCC-25 cells; format: cell-based; details: for IC90 / IC50: Homo sapiens
Method: as §1, §2, §3

[8] = system: SCC-25 cells; assay: Combination studies (single and sequential combination dosing), % cytotoxicity in SCC-25 cells; details: Homo sapiens, SCC-25, SCC-25
Method: as §1, §2
Sorafenib in the following dose of final concentration 0.18 μM and compound A in the following doses of final concentration 0.1 μM, 0.4 μM and 4.1 μM were analyzed in single dose and in all possible combinations of the dose range for the two anticancer agents mentioned above. The sequence of treatment is as follows; the SCC-25 cells were treated with sorafenib for 0 to 24 hrs. At the end of 24 hrs the cells were washed two times with plain MEM (minimum essential media) medium. Fresh MEM with 10% serum (200 μL/well) was added, followed by treatment with compound A from 24 hrs to 96 hrs.
Sorafenib in the following dose of final concentration 0.18 μM and compound B in the following doses of final concentration 0.2 μM, 1.1 μM and 4.8 μM were analyzed in single dose and in all possible combinations of the dose range for the two anticancer agents mentioned above. The sequence of treatment is as follows; the SCC-25 cells were treated with sorafenib for 0 to 24 hrs. At the end of 24 hrs the cells were washed two times with plain MEM medium. Fresh MEM with 10% serum (200 μL/well) was added, followed by treatment with compound B from 24 hrs to 96 hrs.
as §5, with “0.2” for “1.0”, “A” for “B”, “0.2” for “2.7”, “0.5” for “14.1”, “3.3” for “25.2”, “SCC-25” for “Detroit-562”
as §5, with “0.2” for “1.0”, “0.2” for “2.7”, “1.1” for “14.1”, “4.8” for “25.2”, “SCC-25” for “Detroit-562”

[9] = single agent at IC10, docetaxel study
[10] = single agent at IC30, docetaxel study
[11] = single agent at IC50, cisplatin/5-FU/compound A study
[12] = single agent at IC70, cisplatin/5-FU/compound A study

## C#Cc1cccc(Nc2ncnc3cc(OCCOC)c(OCCOC)cc23)c1 [Erlotinib]
[1]
  IC30: 0.9 µM
  IC70: 30.7 µM
[1]; Homo sapiens
  IC50: 10.2 µM
  IC90: 63 µM
[2]
  IC30: 1.4 µM
  IC70: 6.3 µM
[2]; Homo sapiens
  IC50: 2.3 µM
  IC90: 10.7 µM

## O=c1[nH]cc(F)c(=O)[nH]1 [Compound 5-FU]
[3]; [9]
  % Cytotoxicity: 9.49%
[3]; [10]
  % Cytotoxicity: 15.39%
[3]; [11]
  % Cytotoxicity: 16.21%
[3]; [12]
  % Cytotoxicity: 19.54%
[3]; single agent at IC90, cisplatin/5-FU/compound A study
  % Cytotoxicity: 12.59%
[4]; [9]
  % Cytotoxicity: 6.81%
[4]; single agent at IC30, cisplatin/5-FU/compound A study
  % Cytotoxicity: 17.81%
[4]; [10]
  % Cytotoxicity: 19.29%
[4]; [11]
  % Cytotoxicity: 21.1%
[4]; [12]
  % Cytotoxicity: 28.6%
[1]
  IC10: 0.31 µM
  IC30: 2.3 µM
  IC70: 22.4 µM
[1]; Homo sapiens
  IC50: 11.6 µM
  IC90: 38.3 µM
[2]
  IC10: 0.31 µM
  IC30: 1.1 µM
  IC70: 17.6 µM
[2]; Homo sapiens
  IC50: 6.3 µM
  IC90: 33.4 µM

## CC(=O)O[C@@]12CO[C@@H]1C[C@H](O)[C@@]1(C)C(=O)[C@H](O)C3=C(C)[C@@H](OC(=O)[C@H](O)[C@@H](NC(=O)OC(C)(C)C)c4ccccc4)C[C@@](O)([C@@H](OC(=O)c4ccccc4)[C@H]21)C3(C)C [Docetaxel]
[1]
  IC10: 0.003 µM
  IC30: 0.06 µM
  IC70: 0.71 µM
[1]; Homo sapiens
  IC50: 0.16 µM
  IC90: 35.6 µM
[2]
  IC10: 0.009 µM
  IC30: 0.3 µM
  IC70: 8.7 µM
[2]; Homo sapiens
  IC50: 0.85 µM
  IC90: 21.8 µM

## N.N.[Cl][Pt][Cl] [Cisplatin]
[1]
  IC10: 0.25 µM
  IC30: 3 µM
  IC50: 8.3 µM
  IC70: 30 µM
  IC90: 74 µM
[5]
  Tumor Growth inhibition (%): 4%
[2]
  IC10: 0.3 µM
  IC30: 3 µM
  IC50: 14.6 µM
  IC70: 43.2 µM
  IC90: 74.5 µM

## CS(=O)(=O)CCNCc1ccc(-c2ccc3ncnc(Nc4ccc(OCc5cccc(F)c5)c(Cl)c4)c3c2)o1 [Lapatinib, N-(3-chloro-4-{[(3-fluorophenyl)methyl]oxy}phenyl)-6-[5-({[2-(methylsulfonyl)ethyl]amino}methyl)-2-furanyl]-4-quinazolinaminebis(4-methylbenzenesulfonate)monohydrate]
[3]; single agent at IC30 (lapatinib 1 μM; compound A 0.5 μM)
  cytotoxicity at 1 µM: 16%
[3]; single agent at IC30 (lapatinib 1.0 μM; compound B 2.7 μM)
  cytotoxicity at 1 µM: 16%
[1]
  IC30: 0.8 µM
  IC70: 8.7 µM
[1]; Homo sapiens
  IC50: 2.6 µM
  IC90: 14.3 µM
[6]; single agent at IC30 (lapatinib 0.8 μM; compound A 0.2 μM)
  cytotoxicity at 0.8 µM: 19%
[6]; single agent at IC30 (lapatinib 0.8 μM; compound B 2.3 μM)
  cytotoxicity at 0.8 µM: 19%
[7]; SCC-25 cells, 72 hr
  IC90: 9.9 µM
  IC30: 0.2 µM
  IC70: 3.3 µM
[7]; SCC-25 cells, 72 hr, read-out: IC50
  IC50: 0.5 µM
[8]; single agent at IC30 (lapatinib 0.2 μM; compound A 0.2 μM)
  cytotoxicity at 0.2 µM: 17%
[8]; single agent at IC30 (lapatinib 0.2 μM; compound B 0.2 μM)
  cytotoxicity at 0.2 µM: 17%
[2]
  IC30: 1.0 µM
  IC70: 7.6 µM
[2]; Homo sapiens
  IC50: 3.9 µM
  IC90: 12.6 µM

## CNC(=O)c1cc(Oc2ccc(NC(=O)Nc3ccc(Cl)c(C(F)(F)F)c3)cc2)ccn1.Cc1ccc(S(=O)(=O)O)cc1 [Sorafenib, 4-(4-{3-[4-chloro-3-(trifluoromethyl)phenyl]ureido}phenoxy)N^2-methylpyridine-2-carboxamide-4-methylbenzenesulfonate]
[3]; single agent at IC30 (sorafenib 1.8 μM; compound A 0.5 μM)
  cytotoxicity at 1.8 µM: 14%
[3]; single agent at IC30 (sorafenib 1.8 μM; compound B 2.7 μM)
  cytotoxicity at 1.8 µM: 13%
[1]
  IC30: 3.9 µM
  IC70: 14.8 µM
[1]; Homo sapiens
  IC50: 8.4 µM
  IC90: 30.6 µM
[6]; single agent at IC30 (sorafenib 3.9 μM; compound A 0.2 μM)
  cytotoxicity at 3.9 µM: 21%
[6]; single agent at IC30 (sorafenib 3.9 μM; compound B 2.3 μM)
  cytotoxicity at 3.9 µM: 21%
[7]; SCC-25, 72 h
  IC50: 2.7 µM
[7]; SCC-25 cells, 72 hr
  IC90: 11.7 µM
  IC30: 0.18 µM
  IC70: 6.8 µM
[8]; single agent at IC30 (sorafenib 0.18 μM; compound A 0.1 μM)
  cytotoxicity at 0.18 µM: 13%
[8]; single agent at IC30 (sorafenib 0.18 μM; compound B 0.2 μM)
  cytotoxicity at 0.18 µM: 13%
[2]
  IC30: 1.8 µM
  IC70: 11.2 µM
[2]; Homo sapiens
  IC50: 6.1 µM
  IC90: 15.3 µM
